Assays:
[1] = test system: STAT4; assay: Immunoblot of liver lysates: STAT4; format: in vivo, mice; conditions: IP
Experimental: (§1) For ConA induced hepatitis experiments spleen and liver lysates were lysed in RIPA buffer containing 50 mM Tris, pH 7.4, 1% NP-40, 150 mM NaCl, 0.1% SDS, 0.5% sodium deoxycholate and protease inhibitors (5 μg/ml, Sigma), with protease and phosphatase (Sigma, Rehovot, Israel).
(§2) Lysates were centrifuged twice at 4° C. for 10 minutes in 14000 rpm. Equivalent amounts of lysates (15 μg/lane), determined by Bradford assay (Bio-Rad, Rehovot, Israel), were separated by sodium dodecyl sulfate polyacrylamide gel electrophoresis (SDS-PAGE) and transferred to nitrocellulose membranes.
(§3) Blots were developed with horseradish peroxidase-conjugated secondary antibodies (Jackson Laboratories Bar Harbor, Me.) and Western Blot-Luminol Reagent (Santa Cruz Biotechnology, CA, USA). Cell counting and western Blot quantification was performed using total Lab (Phoretix, USA) software.

[2] = test system: IL-10; assay: Serum IL-10 by ELISA in ConA induced hepatitis; format: in vivo, mice; conditions: for serum IL-10: intraperitoneal
Experimental: (§4) Serum levels of IFN-γ, TGF-β, TNF-α IL-2, IL-4, IL-6, IL-10 and IL-12 were determined by “sandwich” ELISA, using commercial kits (Quantikine, R&D Systems, Minneapolis, Minn., USA). Serum insulin was also determined by “sandwich” ELISA too, using the commercial kit of Mercodia AB (Uppsala, Sweden) according to the manufacturer's instructions.

[3] = test system: AKT; assay: Western blot of liver extracts of ob/ob mice: AKT activation; format: in vivo; conditions: per os daily 4 weeks, 15 μg (group D)
Experimental: For analysis of whole tissue lysates, snap-frozen liver pieces were homogenized in 0.75 ml of ice-cold PBS and centrifuged at 4° C. for 5 min in 2000 rpm. Pellets were lysed with 50 mM beta glycerophosphate, 1.5 mM EGTA, PH 7.3, 1 mM EDTA, PH 7.3, 1 mM DTT, 0.1 mM Sodium vanadate, 1% NP-40, and cocktails of protease and phosphatase (Sigma, Rehovot, Israel).
as §2
For metabolic syndrome experiments, proteins were detected with JNK-2, Phospho JNK (Thr183/Tyr185), Akt and phospho Akt (Ser 473) antibodies (Cell Signaling Technologies, MA). β-actin (abcam, UK) was used as the loading control.
as §3
Therefore, five groups of male C57BL/6 Ob/Ob mice were studied. […]

[4] = test system: ob/ob mice; assay: Fasting glucose and glucose tolerance test in ob/ob mice; format: in vivo
Experimental: Mice underwent a glucose tolerance test (GTT) on day 30 after overnight fasting. Glucose was administered orally (1.25 g per kg). Serum glucose measurements were performed on tail-vein blood every 15 min for 3 h. Glucose levels were measured by a standard glucometer.
Therefore, five groups of male C57BL/6 Ob/Ob mice were studied. Mice (6 per group) were fed (per os) daily for 4 weeks with 15 or 45 μg of GC (groups B and C, respectively) and 15 or 45 μg of ALIB-97 (groups D and E, respectively). Control mice (Group A) were administered vehicle only.

[5] = test system: STAT6; assay: Immunoblot of liver lysates: STAT6; format: in vivo, mice; conditions: IP
Experimental: as §1, §2
For ConA induced hepatitis experiments proteins were detected with phospho-specific STAT1-Tyr701, STAT6-Tyr641, STAT1, and STAT6 antibodies from Cell Signaling. β-actin (abcam, UK) was used as a loading control.
as §3

[6] = test system: IL-4; assay: Serum IL-4 by ELISA in ConA induced hepatitis; format: in vivo, mice; conditions: intraperitoneal, data not shown
Experimental: as §4

[7] = test system: ConA induced hepatitis; assay: ConA induced hepatitis model: serum AST and ALT (liver injury); format: in vivo, mice; conditions: for enzyme levels (serum ALT and AST): Con A
Experimental: The effect of β-glycolipids on liver injury was evaluated by serum aspartyl transaminase (AST) and alanine aminotransferase (ALT) activities, which were determined by a clinical chemistry analyzer, Reflovet Plus (Roche Diagnostics, GmbH, Mannheim, Germany).
Con A was purchased from MP Biomedicals (Ohio, USA), was dissolved (0.5 mg, 20 mg/kg) in 200 μl of 50 mM Tris pH 7, 150 mM NaCl, 4 mM CaCl2, and was injected intravenously into mice (tail vain). Sera from individual mice were obtained 8 or 20 h after Con A injection. Serum activities of alanine aminotransferase (ALT) and aspartate aminotransferase (AST) were measured by an automatic analyzer.
To determine the clinical and immunological effect of the novel synthetic compounds of the invention, immune-mediated hepatitis was examined using the ConA induced hepatitis model. Therefore, the different synthetic and natural derivatives of β-glycolipids of Formula II, III and IV [AD2897 (ALIB-97), AD2898, and AD2899, respectively], were examined using seven groups of C57Bl/6 mice, as summarized by Table 1. Mice in experimental groups A-G (eight mice in each group) were injected with ConA. Group A mice were administered with 100 μl intraperitoneal injection of solvent only [15% Cremophor EL/15% ethanol/70% PBS](C:E). Mice in groups B, C, D, E, F, and G were administered with intraperitoneal injection of 1 μg or 10 μg of each of the three analogs Formulated in solvent as described in Experimental Procedures. Animals were sacrificed and examined.
In order to evaluate the potential beneficial effect of the three novel analogues of the invention on immune-mediated hepatitis, the effect of treatment with two concentrations of the three synthetic analogs on liver damage in all tested groups was assessed by determination of serum aspartate aminotransferase (AST), and alanine aminotransferase (ALT) levels.

[8] = test system: mouse splenocytes; assay: In vitro stimulation of splenocytes: supernatant IFN-γ by ELISA; format: cell-based
Experimental: Splenocytes were prepared as described above and plated at 2.0×10^5 cells per well in 96-well plates in RPMI-1640 supplemented with 5% FCS, […] 2-mercaptoethanol, 2 mM glutamine, 1% sodium pyruvate, and antibiotics. Titrated volumes of GC, α-GalCer, and ALIB-97 diluted in DMSO were added at final concentrations of 100 ng, 1 μg, and 10 μg/ml. After 72 h of culture, 1 μCi of [^3H] thymidine (Amersham Biosciences) was added to each well, and the cells were cultured for an additional 16 to 18 h. Cells were harvested with a cell harvester (Tomtec, Orange, Conn.), and the uptake of radioactivity was measured with a β-plate reader. To evaluate IFN-γ secretion in vitro, supernatants were harvested after 90 h of culture with glycolipids and stored until the cytokine levels were measured by ELISA.

[9] = test system: TNF-α; assay: Serum TNF-α by ELISA in ConA induced hepatitis; format: in vivo, mice; conditions: intraperitoneal
Experimental: as §4

[10] = B6 mice, intraperitoneal, Con A hepatitis, p<0.05
[11] = B6 mice, oral administration, 20 h after Con A injection, vs control p<0.01
[12] = ConA induced hepatitis, C57Bl/6 mice, intraperitoneal, 10 μg/mice

CCCCCCCCCCCCCC=CC(O)C(CO[C@@H]1OC(CO)[C@@H](O)C(O)C1O)NC(=S)NC12CC3CC(CC(C3)C1)C2 (stereo in doubt) [ALIB-97, N-adamantyl-N′-glucosylsphingosine thiourea]
STAT4 expression in the liver ([1]; B6 mice): strikingly decreased
STAT4 expression in the liver ([1]; CD1d−/− mice): remained unchanged
serum IL-10 ([2]; B6 mice): increased
IL-10 serum levels ([2]; B6 mice, oral administration, after 20 hours): Decreased
serum IL-10 ([2]; CD1d−/− mice): increased
serum IL-10 ([2]; Jα18−/− mice): increased
AKT activation [3]: decreased
time at which the decrease in glucose levels (GTT, relative to time 0) reached statistical significance ([4]; day 30, 15 μg per os daily): 90 min
time at which the decrease in glucose levels (GTT, relative to time 0) reached statistical significance ([4]; day 30, 45 μg per os daily): 60 min
STAT6 expression in the liver ([5]; B6 mice): slightly increased
STAT6 expression in the liver ([5]; CD1d−/− mice): markedly induced
serum levels of IL-4 [6]: did not affect
reduction of serum ALT levels [7, 10]: more than 60%
reduction of serum AST levels [7, 10]: more than 60%
serum ALT levels [7, 11]: significantly reduced
serum AST levels [7, 11]: significantly reduced
enzyme levels (serum ALT and AST) ([7]; CD1d−/− mice, intraperitoneal): did not significantly alter
serum ALT levels [7, 12]: decreased
serum AST levels [7, 12]: decreased
liver damage induced by Con A treatment ([7]; Jα18 KO mice): exacerbated
enzyme levels (serum ALT and AST) ([7]; Jα18−/− mice, intraperitoneal): did not significantly alter
IFN-γ secretion ([8]; CD1d−/− splenocytes): absence
IFN-γ secretion ([8]; Jα18−/− splenocytes): absence
activation of IFN-γ secretion ([8]; mouse (B6) splenocytes, 100 ng): more than 9 fold
serum TNF-α secretion ([9]; B6 mice): modest effect
serum TNF-α levels ([9]; CD1d−/− KO mice): decreased
serum TNF-α levels ([9]; Jα18−/− KO mice): decreased

From patent publication US8592394B2, “Synthetic derivatives beta glycolipids and compositions thereof for the treatment of pathologic disorders” (Enzo Therapeutics, Inc., priority 2003, dated 2013)
